Reference: patent EP0942911B1, “BENZOPYRANOPYRROLE AND BENZOPYRANOPYRIDINE ALPHA-1 ADRENERGIC COMPOUNDS” (Abbott Laboratories, priority 1996, dated 1998)
Structures can show the parent of a compound that is named as a salt.

What was measured:
α-1B adrenoreceptor = molecular target: T1, α-1B adrenoreceptor (Rattus norvegicus, UniProt P15823); assay: cell-based; conditions: phenylephrine-induced contraction, Schild plot; for Kb: read-out: In Vitro Characterization (pA2) Rat Spleen (converted)
T1 construct: from tissue; host or cells: rat spleen
T1 sequence (P15823 1-515): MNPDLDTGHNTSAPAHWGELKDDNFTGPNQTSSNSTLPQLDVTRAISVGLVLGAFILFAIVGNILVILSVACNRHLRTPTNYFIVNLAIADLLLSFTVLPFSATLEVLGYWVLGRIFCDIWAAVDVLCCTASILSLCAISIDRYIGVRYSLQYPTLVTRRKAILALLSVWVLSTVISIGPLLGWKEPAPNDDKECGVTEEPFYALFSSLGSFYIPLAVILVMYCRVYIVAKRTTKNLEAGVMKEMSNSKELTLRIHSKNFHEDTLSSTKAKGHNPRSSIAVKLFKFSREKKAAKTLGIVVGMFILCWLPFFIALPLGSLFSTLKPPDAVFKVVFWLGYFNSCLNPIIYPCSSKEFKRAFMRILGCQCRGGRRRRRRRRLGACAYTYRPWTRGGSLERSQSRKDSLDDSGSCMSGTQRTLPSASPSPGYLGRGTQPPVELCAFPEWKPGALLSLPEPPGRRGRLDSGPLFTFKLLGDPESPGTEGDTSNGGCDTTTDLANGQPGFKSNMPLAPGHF
In short: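 Phenylephrine dose-response curves for contraction were repeated against increasing test-agent concentrations. pA2 was derived by Schild plot [[…] vs log molarity of test agent].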

α-1A adrenoreceptor = assay: Functional antagonism: inhibition of PE-induced contraction of canine prostate strips (Schild plot); type: cell-based; conditions: phenylephrine-induced contraction
Source text: Canine prostate strips were used in vitro as previously described (Hieble, J.P., Boyce, A.J. and Caine, M., Fed. Proc., 45: 2609-2614 (1986)), to determine antagonist potencies against phenylephrine-induced contractions.
Functional assays indicative of pharmacologically defined α-1 adrenoreceptors were used to further characterize compounds. Inhibition of phenylephrine (PE)-induced contraction of canine prostate smooth muscle can be correlated with α-1A adrenoreceptor activation. […] For each of these models, agonist dose response curves were repeated against increasing concentrations of test agent to derive a Schild plot [log ([…]) against log (molarity of test agent)] to determine the pA2.

α-1 Adrenoceptors = assay: Functional antagonism in rat aorta (method not described); type: cell-based

With COc1cccc2c1[C@H]1CN(CCCCn3c(=O)[nH]c4c(sc5nccnc54)c3=O)C[C@@H]1CO2.Cl.Cl (racemic) [Example 74, 3-[4-((±)-trans-9-Methoxy-1,2,3,3a,4,9b-hexahydro-[1]-benzopyrano[3,4-c]pyrrol-2-yl)butyl]-pyrazino[2',3':4,5]thieno[3,2-d]pyrimidine-2,4(1H,3H)-dione dihydrochloride] the Kb (α-1B adrenoreceptor) was 6.46 nM and the “In Vitro Characterization (pA2) Dog Prostate” value (α-1A adrenoreceptor) was 9.03.

For “3-[4-((3aR,9bR)-cis-9-Methoxy-1,2,3,3a,4,9b-hexahydro-[1]-benzopyrano[3,4-c]pyrrol-2-yl]butyl]-7-methoxy-pyrido[3',2':4,5]thieno[3,2-d]pyrimidine-2,4(1H,3H)-dione hydrochloride [Example 33]”, the “In Vitro Characterization (pA2) Rat Spleen” value (α-1B adrenoreceptor) was 7.83 and the “In Vitro Characterization (pA2) Rat Aorta” value (α-1 Adrenoceptors) was 9.15.

With COc1cccc2c1[C@@H]1CCN(CCCCn3c(=O)[nH]c4c(sc5cccnc54)c3=O)C[C@H]1CO2 [Example 95, 3-[4-((4aS,10bR)-trans-10-Methoxy-1,3,4,4a,5,10b-hexahydro-2H-[1]-benzopyrano[3,4-c]pyrido-3-yl)butyl]-pyrido[2',3':4,5]thieno[3,2-d]pyrimidine-2.4(1H,3H)-dione dihydrochloride] the Kb (α-1B adrenoreceptor) was 19.1 nM and the “In Vitro Characterization (pA2) Dog Prostate” value (α-1A adrenoreceptor) was 8.58.

For COc1ccc2sc3c(=O)n(CCCCN4C[C@H]5COc6cccc(OC)c6[C@@H]5C4)c(=O)[nH]c3c2n1 [Example 26, 3-[4-((3aS,9bR)-trans-9-Methoxy-1,2,3,3a,4,9b-hexahydro-[1]-benzopyrano[3,4-c]pyrrol-2-yl)butyl]-8-methoxy-pyrido[2',3':4,5]thieno[3,2-d]pyrimidine-2,4(1H,3H)-dione hydrochloride], the Kb (α-1B adrenoreceptor) was 3.16 nM and the “In Vitro Characterization (pA2) Dog Prostate” value (α-1A adrenoreceptor) was 9.15.

In the case of COc1cccc2c1[C@@H]1CCN(CCCCn3c(=O)[nH]c4c(sc5ncc(Cl)nc54)c3=O)C[C@H]1CO2 [Example 97, 3-[4-((4aS,10bR)-trans-10-Methoxy-1,3,4,4a,5,10b-hexahydro-2H-[1]-benzopyrano[3,4-c]pyrido-3-yl)butyl]-8-chloro-pyrazino[2',3':4,5]thieno[3,2-d]pyrimidine-2,4(1H,3H)-dione dihydrochloride], the Kb (α-1B adrenoreceptor) is reported as 17.4 nM and the “In Vitro Characterization (pA2) Dog Prostate” value (α-1A adrenoreceptor) is reported as 8.6.

In the case of COc1cccc2c1OC[C@H]1CN(CCn3c(=O)[nH]c4c(sc5ccccc54)c3=O)C[C@@H]21.Cl (racemic) [Example 67, 3-[2-((±)-cis-6-Methoxy-1,2,3,3a,4,9b-hexahydro-[1]-benzopyrano[3,4-c]pyrrol-2-yl)ethyl]-[1]benzthieno[3,2-d]pyrimidine-2,4(1H,3H)-dione hydrochloride], the Kb (α-1B adrenoreceptor) is reported as 148 nM and the “In Vitro Characterization (pA2) Dog Prostate” value (α-1A adrenoreceptor) is reported as 7.33.

COc1cccc2c1[C@@H]1CN(CCCCn3c(=O)[nH]c4c(sc5ncc(-c6ccccc6)nc54)c3=O)C[C@H]1CO2 [Example 50, 3-[4-((3aS,9bR)-trans-9-Methoxy-1,2,3,3a,4,9b-hexahydro-[1]-benzopyrano[3,4-c]pyrrol-2-yl)butyl]-8-phenyl-pyrazino[2',3':4,5]thieno[3,2-d]pyrimidine-2,4(1H,3H)-dione hydrochloride] was tested, and the Kb (α-1B adrenoreceptor) was 316 nM and the “In Vitro Characterization (pA2) Dog Prostate” value (α-1A adrenoreceptor) was 8.45.

In the case of COc1cccc2c1[C@@H]1CN(CCCCn3c(=O)[nH]c4c(sc5ncc(Cl)nc54)c3=O)C[C@H]1CO2 [Example 13, 3-[4-((3aS,9bR)-trans-9-Methoxy-1,2,3,3a,4,9b-hexahydro-[1]-benzopyrano[3,4-c]pyrrol-2-yl)butyl]-8-chloro-pyrazino[2',3':4,5]thieno[3,2-d]pyrimidine-2,4(1H,3H)-dione hydrochloride], the Kb (α-1B adrenoreceptor) is reported as 4.07 nM and the “In Vitro Characterization (pA2) Dog Prostate” value (α-1A adrenoreceptor) is reported as 9.91.
